Read-outs that look alike come from different tables or passages of the source. Each block holds one compound with its values, some of them ahead of it.
Key:
[1] = Apparent thermodynamic functions of IMC dissolution (van't Hoff and Gibbs equations); format: physicochemical
From the text: The van’t Hoff and Gibbs equations were employed for calculating the Thm = 305.55 K (the mean harmonic temperature), which was derived by considering into calculate temperatures (298.15 to 313.15 K). The thermodynamic parameters of dissolution have been evaluated by employing the apparent thermodynamic functions. […] On the other hand, the van’t Hoff plot, which is a plot of lnx1 versus 1/T-1/Thm , can be utilized to figure out:14 ΔHsoln∘=-R∂lnx1/∂1/T-1/ThmP, 15 ΔGsoln∘=-RThm×intercept.
In this manner, the values of ΔHsoln∘ and ΔGsoln∘ have been evaluated utilizing the slope and intercept of Eqs. 14 and 15. Furthermore, the following equation [47, 48] was applied to evaluate the standard molar entropy of dissolution, ΔSsoln∘ [49]:16 ΔSsoln∘=ΔHsoln∘-ΔGsoln∘/Thm.
Finally, in the IMC dissolution process, Eqs.

[2] = XRD of residual solids from solubility measurement; format: physicochemical; settings: residual solids from saturated aqueous PIL solutions vs raw IMC
From the text: The XRD diffractograms of raw IMC crystals together with residuals crystals sampled from solubility measurement are depicted in Figure S4. (supporting information). It should be noted that quantitative analysis of phases in samples with preferential orientation or texture is not possible using traditional methods such as direct comparison. […] First, the stability of IMC in the presence of PILs was investigated. The analysis of the bottom phase(s) after the solubility experiments have been presented. There are different type of factors affecting the peak intensity of XRD. These type of factors are listed as: • The nature of the sample under test (single-phase or multiphase of the sample). • Powder samples have less peak intensity than bulk samples. (Due to the effect of absorption factor). • Grain size: the larger the grain size, the higher the peak intensity. For example, considering samples with the same chemical composition, which have been annealed at different times of heat treatment, a sample will have a higher peak intensity with a longer heat treatment time (longer annealing time = larger grain size). It should be noted that the smaller the grain size, the higher the […] is the amorphous part of the material, and as a result the background scatter in the diffraction pattern will increase and the peak intensity would decrease.

[3] = format: physicochemical
Description: Before obtaining dissolution data, a calibration curve for Indomethacin (IMC) was established (Fig. 2). A double-beam T80 UV-vis spectrometer (Japan) and a mixture of ethanol and distilled deionized water were employed to dissolve a specific amount of IMC to generate the calibration curve. Numerous methods were utilized to determine the experimental solubility data, encompassing the shake-flask method. […] Then, the excess amounts of IMC were added to glass vials holding a particular quantity of water and PILs, which were stirred and kept for 3 days in a water bath thermostat until equilibrium was reached. The temperature was adjusted with a precision of 0.01 K using an ED water bath thermostat (Julabo Co., Germany). After 3 days, the liquid and solid phases were separated employing a Hettich D-7200 centrifuge. At the next step, the liquid phase was appropriately diluted with an ethanol + water solution after filtering the saturated solutions through a 0.22 μm PTFE filter. The concentration of IMC in the solutions was measured by utilizing the calibration curve and a T80 UV-vis spectrometer (Japan). The mole fraction of IMC (x1) in the aqueous solutions containing PILs was determined, for the IMC + water, IMC + water combination, and IMC + PILs systems using the Eq. 1 [25, 26]:1 x1=[…]3, where Wi and Mi, respectively, indicate the weight fractions and molar mass weight fractions of each system component (i).

[4] = cited from earlier work
HT29 cell line [5] = tested on: HT29 cell line
Description: (§1) Pastor Institute of Iran generously provided the human colon adenocarcinoma cell line HT29. The cell lines were cultured in RPMI’s medium supplemented with 10% fetal bovine serum (FBS) and Culture medium containing FBS. The cell cultures were incubated at 37 °C in a humidified environment of 5% carbon dioxide—CO2.
(§2) The colorimetric MTT assay was used to assess the cytotoxic activity of PILs (Twentyman and Luscombe 1987). HT29 cells were seeded in 96-well plates and allowed to conform for the first step. The cells were then incubated for 24 h at 37 °C in 5% CO2 in a total of six concentrations (3–150 µg mL^−1) of the studied compounds diluted in RPMI medium (previously sterilized with a 0.22 m syringe filter). After 24 h of exposure, each well was filled with 50 µL of MTT solution (3 (4,5-dimethylthiazol-2-yl)-2,5-diphenyltetrazolium bromide (MTT) from Sigma-Aldrich) (2 mg. mL in PBS, pH 7.2). To dissolve the formazan crystals, the medium was substituted with 150 µL of dimethyl sulfoxide (DMSO) after 4 h of incubation.
(§3) The plate was shaking for around 1 h while being held out of direct sunlight. Cell viability was measured through the optical density of reduced MTT at 570–630 nm using a microplate reader (Synergy HT from BioTeK Instruments Inc., Winooski, VT, USA). The percentage of viable cells was calculated as the ratio between the absorbance of treated and control cells. Similarly, IC50 was estimated using a non-linear regression, logistic equation to determine the chemical concentration that causes a 50% reduction in cell viability [27].

HT29 cell line [6] = assay: MTT assay cytotoxicity of PILs; settings: for IC50: MTT, 24 h exposure
Description: as §1, §2, §3

[7] = aq. MEAA, w3 = 0.0000, Thm = 305.55 K
[8] = aq. MEAA, w3 = 0.0200, Thm = 305.55 K
[9] = aq. MEAA, w3 = 0.0500, Thm = 305.55 K
[10] = aq. MEAA, w3 = 0.0700, Thm = 305.55 K
[11] = aq. MEAA, w3 = 0.1000, Thm = 305.55 K
[12] = aq. MEAA, w3 = 0.1500, Thm = 305.55 K
[13] = aq. MEAA, w3 = 0.2000, Thm = 305.55 K
[14] = aq. MEAL, w3 = 0.0000, Thm = 305.55 K
[15] = aq. MEAL, w3 = 0.0200, Thm = 305.55 K
[16] = aq. MEAL, w3 = 0.0500, Thm = 305.55 K
[17] = aq. MEAL, w3 = 0.0700, Thm = 305.55 K
[18] = aq. MEAL, w3 = 0.1000, Thm = 305.55 K
[19] = aq. MEAL, w3 = 0.1500, Thm = 305.55 K
[20] = aq. MEAL, w3 = 0.2000, Thm = 305.55 K
[21] = aq. MEAP, w3 = 0.0000, Thm = 305.55 K
[22] = aq. MEAP, w3 = 0.0200, Thm = 305.55 K
[23] = aq. MEAP, w3 = 0.0500, Thm = 305.55 K
[24] = aq. MEAP, w3 = 0.0700, Thm = 305.55 K
[25] = aq. MEAP, w3 = 0.1000, Thm = 305.55 K
[26] = aq. MEAP, w3 = 0.1500, Thm = 305.55 K
[27] = aq. MEAP, w3 = 0.2000, Thm = 305.55 K

- ΔGsoln∘ [1, 7]: 8.265 kcal/mol
- ΔHsoln∘ [1, 7]: 6.052 kcal/mol
- ξH [1, 7]: 73.23%
- ξTS [1, 7]: 26.77%
- ΔGsoln∘ [1, 8]: 6.804 kcal/mol
- ΔHsoln∘ [1, 8]: 4.345 kcal/mol
- ξH [1, 8]: 63.86%
- ξTS [1, 8]: 36.14%
- ΔGsoln∘ [1, 9]: 6.671 kcal/mol
- ΔHsoln∘ [1, 9]: 3.662 kcal/mol
- ξH [1, 9]: 54.90%
- ξTS [1, 9]: 45.10%
- ΔGsoln∘ [1, 10]: 6.604 kcal/mol
- ΔHsoln∘ [1, 10]: 2.13 kcal/mol
- ξH [1, 10]: 32.21%
- ξTS [1, 10]: 67.79%
- ΔGsoln∘ [1, 11]: 6.561 kcal/mol
- ΔHsoln∘ [1, 11]: 2.55 kcal/mol
- ξH [1, 11]: 38.86%
- ξTS [1, 11]: 61.14%
- ΔGsoln∘ [1, 12]: 6.422 kcal/mol
- ΔHsoln∘ [1, 12]: 4.572 kcal/mol
- ξH [1, 12]: 71.17%
- ξTS [1, 12]: 28.83%
- ΔGsoln∘ [1, 13]: 6.255 kcal/mol
- ΔHsoln∘ [1, 13]: 2.536 kcal/mol
- ξH [1, 13]: 40.54%
- ξTS [1, 13]: 59.46%
- ΔGsoln∘ [1, 14]: 8.265 kcal/mol
- ΔHsoln∘ [1, 14]: 6.052 kcal/mol
- ξH [1, 14]: 73.23%
- ξTS [1, 14]: 26.77%
- ΔGsoln∘ [1, 15]: 6.028 kcal/mol
- ΔHsoln∘ [1, 15]: 5.282 kcal/mol
- ξH [1, 15]: 87.61%
- ξTS [1, 15]: 12.39%
- TMΔSsoln∘ [1, 16]: 0.598 kcal/mol
- ΔGsoln∘ [1, 16]: 5.746 kcal/mol
- ΔHsoln∘ [1, 16]: 6.343 kcal/mol
- ξH [1, 16]: 91.39%
- ξTS [1, 16]: 8.61%
- TMΔSsoln∘ [1, 17]: 2.457 kcal/mol
- ΔGsoln∘ [1, 17]: 5.633 kcal/mol
- ΔHsoln∘ [1, 17]: 8.09 kcal/mol
- ξH [1, 17]: 76.70%
- ξTS [1, 17]: 23.30%
- TMΔSsoln∘ [1, 18]: 0.911 kcal/mol
- ΔGsoln∘ [1, 18]: 5.471 kcal/mol
- ΔHsoln∘ [1, 18]: 6.381 kcal/mol
- ξH [1, 18]: 87.50%
- ξTS [1, 18]: 12.50%
- TMΔSsoln∘ [1, 19]: 2 kcal/mol
- ΔGsoln∘ [1, 19]: 5.208 kcal/mol
- ΔHsoln∘ [1, 19]: 7.206 kcal/mol
- ξH [1, 19]: 78.28%
- ξTS [1, 19]: 21.72%
- TMΔSsoln∘ [1, 20]: 0.614 kcal/mol
- ΔGsoln∘ [1, 20]: 5.036 kcal/mol
- ΔHsoln∘ [1, 20]: 5.652 kcal/mol
- ξH [1, 20]: 90.18%
- ξTS [1, 20]: 9.82%
- ΔGsoln∘ [1, 21]: 8.265 kcal/mol
- ΔHsoln∘ [1, 21]: 6.052 kcal/mol
- ξH [1, 21]: 73.23%
- ξTS [1, 21]: 26.77%
- TMΔSsoln∘ [1, 22]: 0.75 kcal/mol
- ΔGsoln∘ [1, 22]: 6.965 kcal/mol
- ΔHsoln∘ [1, 22]: 7.715 kcal/mol
- ξH [1, 22]: 91.14%
- ξTS [1, 22]: 8.86%
- TMΔSsoln∘ [1, 23]: 1.91 kcal/mol
- ΔGsoln∘ [1, 23]: 6.74 kcal/mol
- ΔHsoln∘ [1, 23]: 8.65 kcal/mol
- ξH [1, 23]: 81.92%
- ξTS [1, 23]: 18.08%
- TMΔSsoln∘ [1, 24]: 7.481 kcal/mol
- ΔGsoln∘ [1, 24]: 6.616 kcal/mol
- ΔHsoln∘ [1, 24]: 14.1 kcal/mol
- ξH [1, 24]: 65.33%
- ξTS [1, 24]: 34.67%
- TMΔSsoln∘ [1, 25]: 11.89 kcal/mol
- ΔGsoln∘ [1, 25]: 6.456 kcal/mol
- ΔHsoln∘ [1, 25]: 18.34 kcal/mol
- ξH [1, 25]: 60.68%
- ξTS [1, 25]: 39.32%
- TMΔSsoln∘ [1, 26]: 14.01 kcal/mol
- ΔGsoln∘ [1, 26]: 6.066 kcal/mol
- ΔHsoln∘ [1, 26]: 20.07 kcal/mol
- ξH [1, 26]: 58.90%
- ξTS [1, 26]: 41.10%
- TMΔSsoln∘ [1, 27]: 9.183 kcal/mol
- ΔGsoln∘ [1, 27]: 5.786 kcal/mol
- ΔHsoln∘ [1, 27]: 14.97 kcal/mol
- ξH [1, 27]: 61.98%
- ξTS [1, 27]: 38.02%
- solid phase stability in solubility measurements (XRD) [2]: no phase transformation
- IMC solubility in MEAL PIL relative to water [3]: more than 200 times
- increase of IMC solubility in PILs compared to pure water [3]: ~200 times
- solubility (mole fraction) [3]: 20.71 × 10^−5 mole fraction
Structure (SMILES): COc1ccc2c(c1)c(CC(=O)O)c(C)n2C(=O)c1ccc(Cl)cc1 [Indomethacin]
- solubility (mole fraction) ([4]; ethanol/water (wETOH = 0.2), 298.15 K, ref Peña et al.): 1.13 × 10^−5 mole fraction
- solubility (mole fraction) ([4]; propylene glycol/water, 0.4 weight fraction propylene glycol, 303.15 K, ref Holguín et al. 52): 7.61 × 10^–6 mole fraction

Structure (SMILES): CC(=O)O.NCCO [MEAA, 2-Hydroxyethylammonium acetate]
- cytotoxic effect category (HT29 cell line [5]): moderate
- IC50 (HT29 cell line [6]): 26.40 ± 0.006 µg/mL

Structure (SMILES): CC(O)C(=O)O.NCCO (centres unmarked) [MEAL, 2-Hydroxyethylammonium lactate]
- cytotoxic effect category (HT29 cell line [5]): moderate
- IC50 (HT29 cell line [6]): 79.23 ± 0.001 µg/mL

Structure (SMILES): CCC(=O)O.NCCO [MEAP, 2-Hydroxyethylammonium propionate]
- cytotoxic effect category (HT29 cell line [6]): moderate
- IC50 (HT29 cell line [6]): 67.19 ± 0.049 µg/mL

Reference: article PMC11145891, “Effect of 2-hydroxyethylammonium carboxylate protic ionic liquids on the solubility and cytotoxicity of indomethacin” (BMC Chemistry, 2024)
